{"source": "paper PMC6934184", "about": "“Selective DNA-PKcs inhibition extends the therapeutic index of localized radiotherapy and chemotherapy” (The Journal of Clinical Investigation, 2019)", "target": "T1, TEK (TIE2) R849W (Homo sapiens, UniProt Q02763, R849W)", "T1 construct": "purchased Thermo Fisher Scientific (Life Technologies) SelectScreen", "T1 sequence (Q02763 23-1124 R849W)": "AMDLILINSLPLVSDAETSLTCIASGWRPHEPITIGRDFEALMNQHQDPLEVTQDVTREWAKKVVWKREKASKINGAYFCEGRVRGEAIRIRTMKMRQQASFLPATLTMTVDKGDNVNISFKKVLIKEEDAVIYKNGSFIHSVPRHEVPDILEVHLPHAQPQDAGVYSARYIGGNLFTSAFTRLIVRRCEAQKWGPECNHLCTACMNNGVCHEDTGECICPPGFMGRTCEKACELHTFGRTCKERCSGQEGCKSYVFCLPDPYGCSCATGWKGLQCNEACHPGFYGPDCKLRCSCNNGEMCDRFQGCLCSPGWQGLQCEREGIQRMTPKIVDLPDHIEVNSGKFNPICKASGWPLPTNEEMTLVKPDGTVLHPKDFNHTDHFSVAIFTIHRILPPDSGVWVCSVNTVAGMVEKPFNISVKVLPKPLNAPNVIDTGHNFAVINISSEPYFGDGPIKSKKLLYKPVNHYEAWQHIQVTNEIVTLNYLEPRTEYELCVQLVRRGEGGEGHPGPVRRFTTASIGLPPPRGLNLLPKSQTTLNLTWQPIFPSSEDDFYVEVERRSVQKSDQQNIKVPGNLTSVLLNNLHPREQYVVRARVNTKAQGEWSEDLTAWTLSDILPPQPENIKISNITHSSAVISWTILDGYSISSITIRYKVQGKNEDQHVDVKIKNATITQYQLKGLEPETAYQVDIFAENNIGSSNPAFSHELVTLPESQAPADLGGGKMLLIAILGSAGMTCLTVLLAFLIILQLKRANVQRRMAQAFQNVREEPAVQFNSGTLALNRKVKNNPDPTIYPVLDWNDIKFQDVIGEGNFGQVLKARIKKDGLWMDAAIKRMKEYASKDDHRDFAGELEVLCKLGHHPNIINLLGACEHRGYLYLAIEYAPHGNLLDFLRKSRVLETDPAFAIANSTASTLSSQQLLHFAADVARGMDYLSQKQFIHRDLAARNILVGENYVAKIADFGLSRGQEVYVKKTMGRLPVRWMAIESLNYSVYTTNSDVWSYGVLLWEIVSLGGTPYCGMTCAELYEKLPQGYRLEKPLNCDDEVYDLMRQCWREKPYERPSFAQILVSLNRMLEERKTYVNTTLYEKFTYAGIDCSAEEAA", "test": "SelectScreen LanthaScreen", "format": "binding", "details": "read-out: % displacement", "in_short": "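Percent values come from Thermo SelectScreen profiling of NU5455, combining activity and binding assays. CSF1R was run in Z'LYTE format at Km app ATP, and CAMK1 in Adapta format with ATP listed at 10.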"}
{"smiles": "CN(C(=O)CN1CCOCC1)c1ccc2sc3c(-c4cccc5c(=O)cc(N6CC7CCC(C6)O7)oc45)cccc3c2c1", "note": "[NU5455]", "values": [{"measurement": "inhibition at 1 µM", "value": -3.3, "unit": "%"}]}
